In the CheMixHub ionic liquid set:

Test: xn = mol fraction of the nth substance listed
Details: 100 kPa

CCCCCCCCCCCCCCCC[n+]1ccccc1.[Br-] + NCC(=O)NCC(=O)O + O
electrical conductivity [S/m]
Details | x1 = 8.993e-05, x2 = 0.001802 | x1 = 8.996e-05, x2 = 0.001442 | x1 = 8.999e-05, x2 = 0.001082 | x1 = 9.003e-05, x2 = 0.0007216 | x1 = 9.006e-05, x2 = 0.0003609 | x1 = 9.009e-05, x2 = 0
298.15 K | 0.023 | 0.022 | 0.021 | 0.02 | 0.019 | 0.021
303.15 K | 0.024 | 0.023 | 0.022 | 0.021 | 0.02 | 0.021
308.15 K | 0.025 | 0.024 | 0.023 | 0.022 | 0.021 | 0.022
313.15 K | 0.026 | 0.025 | 0.024 | 0.023 | 0.022 | 0.024

CCCCCCCCCCCCCCCC[n+]1ccccc1.[Cl-] + NCC(=O)NCC(=O)O + O
electrical conductivity [S/m]
Details | x1 = 8.993e-05, x2 = 0.001802 | x1 = 8.996e-05, x2 = 0.001442 | x1 = 8.999e-05, x2 = 0.001082 | x1 = 9.003e-05, x2 = 0.0007214 | x1 = 9.006e-05, x2 = 0.0003609 | x1 = 9.009e-05, x2 = 0
298.15 K | 0.024 | 0.023 | 0.022 | 0.021 | 0.02 | 0.02
303.15 K | 0.025 | 0.024 | 0.023 | 0.022 | 0.021 | 0.021
308.15 K | 0.027 | 0.026 | 0.024 | 0.023 | 0.022 | 0.021
313.15 K | 0.028 | 0.027 | 0.025 | 0.024 | 0.023 | 0.023

CCCCCCCC[n+]1ccccc1.[Br-] + NCC(=O)NCC(=O)O + O
electrical conductivity [S/m]
Details | 288.15 K | 293.15 K | 298.15 K | 303.15 K | 308.15 K
x2 = 0.0008948, x1 = 0.00597 | – | – | – | – | 2.18
x2 = 0.0008948, x1 = 0.005972 | – | – | 1.72 | 1.92 | –
x2 = 0.0008948, x1 = 0.005974 | 1.34 | 1.52 | – | – | –
x2 = 0.000895, x1 = 0.005737 | – | – | – | – | 2.13
x2 = 0.000895, x1 = 0.005739 | – | 1.48 | 1.68 | 1.88 | –
x2 = 0.000895, x1 = 0.005741 | 1.31 | – | – | – | –
x2 = 0.0008953, x1 = 0.005443 | – | – | 1.62 | 1.82 | 2.05
x2 = 0.0008953, x1 = 0.005445 | 1.27 | 1.44 | – | – | –
x2 = 0.0008956, x1 = 0.005122 | – | – | 1.57 | 1.76 | 1.98
x2 = 0.0008956, x1 = 0.005124 | 1.22 | 1.39 | – | – | –
x2 = 0.0008959, x1 = 0.004789 | – | 1.34 | 1.51 | 1.69 | 1.88
x2 = 0.0008959, x1 = 0.00479 | 1.18 | – | – | – | –
x2 = 0.0008962, x1 = 0.004442 | 1.14 | 1.29 | 1.45 | 1.62 | 1.79
x2 = 0.0008965, x1 = 0.004038 | – | – | – | – | 1.69
x2 = 0.0008965, x1 = 0.004039 | 1.07 | 1.21 | 1.36 | 1.52 | –
x2 = 0.000897, x1 = 0.00359 | – | – | 1.26 | 1.4 | 1.55
x2 = 0.000897, x1 = 0.003592 | 0.984 | 1.12 | – | – | –
x2 = 0.0008974, x1 = 0.003106 | 0.886 | 1 | 1.13 | 1.26 | 1.39
x2 = 0.0008979, x1 = 0.002563 | 0.768 | 0.87 | 0.975 | 1.09 | 1.19
x2 = 0.0008984, x1 = 0.002015 | 0.637 | 0.721 | 0.807 | 0.898 | 0.973
x2 = 0.0008987, x1 = 0.001634 | 0.54 | 0.61 | 0.682 | 0.758 | 0.823
x2 = 0.0008991, x1 = 0.001218 | 0.424 | 0.477 | 0.533 | 0.592 | 0.657
x2 = 0.0008995, x1 = 0.0007371 | 0.298 | 0.332 | 0.369 | 0.406 | 0.467
x2 = 0.001787, x1 = 0.006313 | – | – | – | – | 2.23
x2 = 0.001787, x1 = 0.006315 | – | – | 1.76 | 1.95 | –
x2 = 0.001787, x1 = 0.006317 | 1.36 | 1.53 | – | – | –
x2 = 0.001788, x1 = 0.005888 | – | – | 1.69 | 1.87 | 2.13
x2 = 0.001788, x1 = 0.00589 | 1.31 | 1.47 | – | – | –
x2 = 0.001789, x1 = 0.005263 | – | – | – | 1.76 | 1.98
x2 = 0.001789, x1 = 0.005265 | 1.23 | 1.38 | 1.57 | – | –
x2 = 0.001789, x1 = 0.005589 | – | – | 1.63 | 1.81 | 2.05
x2 = 0.001789, x1 = 0.005591 | 1.27 | 1.43 | – | – | –
x2 = 0.00179, x1 = 0.004922 | – | – | 1.51 | 1.69 | 1.88
x2 = 0.00179, x1 = 0.004924 | 1.18 | 1.33 | – | – | –
x2 = 0.001791, x1 = 0.004115 | – | 1.2 | 1.35 | 1.51 | 1.68
x2 = 0.001791, x1 = 0.004116 | 1.06 | – | – | – | –
x2 = 0.001791, x1 = 0.004536 | – | – | – | – | 1.78
x2 = 0.001791, x1 = 0.004537 | 1.13 | 1.27 | 1.44 | 1.61 | –
x2 = 0.001792, x1 = 0.003673 | – | – | – | 1.4 | 1.54
x2 = 0.001792, x1 = 0.003675 | 0.984 | 1.12 | 1.26 | – | –
x2 = 0.001793, x1 = 0.003161 | 0.886 | 0.997 | 1.12 | 1.25 | 1.38
x2 = 0.001794, x1 = 0.002599 | 0.766 | 0.862 | 0.967 | 1.08 | 1.18
x2 = 0.001795, x1 = 0.001992 | 0.62 | 0.699 | 0.783 | 0.87 | 0.87
x2 = 0.001796, x1 = 0.001587 | 0.515 | 0.581 | 0.65 | 0.724 | 0.724
x2 = 0.001797, x1 = 0.0007376 | 0.292 | 0.326 | 0.36 | 0.389 | 0.389
x2 = 0.001797, x1 = 0.001185 | 0.405 | 0.456 | 0.51 | 0.566 | 0.566
